Reference: patent publication US20240115557A1, “INHIBITORS OF RNA-GUIDED NUCLEASES AND USES THEREOF” (The Brigham and Women's Hospital, Inc., priority 2022, published 2024)

Key:
SpCas9:gRNA complex = SpCas9:gRNA complex (Streptococcus pyogenes serotype M1, UniProt Q99ZW2); assay: STD NMR binding assay; settings: 20 μM compound, 5 μM SpCas9:gRNA
Experimental: All samples were prepared with 20 μM of BRD7586 in a 20 mM […] buffer (pH 7.4) in D2O with or without 5 μM of SpCas9:gRNA in a 3 mm NMR tube. Experiments were performed on a 600 MHz (^19F: 564.71 MHz) Bruker AVANCE III NMR spectrometer equipped with a 5 mm QCI-F CryoProbe and a SampleJet for automated sample handling. To acquire the spectra, a standard one-pulse STD experiment with WALTZ-16 for proton decoupling during acquisition, a 5 s recycle delay, and 256 scans were used. All spectra were recorded at 280 K. NMR data were apodized with a 1-Hz exponential function prior to Fourier transformation. All spectra were baseline corrected, and peak widths and intensities were extracted using the automated line-fitting feature provided with the MNova software package.

LbCas12a = assay: eGFP disruption assay, LbCas12a RNP; assay type: cell-based; settings: RNP delivery, U2OS.eGFP.PEST, 24 h
U2OS.eGFP.PEST cells [1] = assay: CellTiter-Glo cell viability assay, U2OS.eGFP.PEST; assay type: cell-based, human; settings: 24 h
Experimental: (§1) HEK293T cells or U2OS.eGFP.PEST cells were plated in a 96-well plate at the density of 30,000 cells per well or 20,000 cells per well, respectively. The next day, cells were treated with indicated amount of compounds for 24 h. Then, cellular ATP levels were measured using CellTiter-Glo Luminescent Cell Viability Assay (Promega) with an EnVision Multilabel Plate Reader (PerkinElmer) at the integration time of 0.5 s per well.

HEK293T cells = assay: CellTiter-Glo cell viability assay, HEK293T; assay type: cell-based, human; settings: 24 h
Experimental: as §1

U2OS.eGFP.PEST cells [2] = assay: eGFP fluorescence counter assay in absence of SpCas9:gRNA; assay type: cell-based, human
Experimental: FIG. 73A-73E Counter assays to validate BRD7586 in cells FIG. 73A,B Immunoblotting analysis of SpCas9 expression in (A) HEK293T cells or (B) U20S.eGFP.PEST cells transfected with SpCas9 plasmid were incubated with BRD7586 for 24 h (n=2 or 3 independent experiments). p>0.05 for BRD7586 at […] compared to DMSO in U20S.eGFP.PEST cells (paired t test, two-tailed) FIG. 73C Changes in the fluorescence intensity in the presence of BRD7586 in U20S.eGFP.PEST. Cells were treated with the compound for 24 h, and the fluorescence was measured to calculate the fraction of GFP-positive populations. Means from 3 independent experiments are shown. […] Error bars represent SD from 3 independent experiments. For SpCas9, p≤0.01 for BRD7586 at 15 μM compared to DMSO. For LbCas12a, p>0.05 for BRD7586 at 15 μM compared to DMSO in all experiments (unpaired t test, two-tailed).

SpCas9 = SpCas9 (Streptococcus pyogenes serotype M1, UniProt Q99ZW2); assay: Strand displacement assay (SDA) / cumulative activity assay (CAA), SpCas9 primary screen; assay type: biochemical; settings: result in words
Outline: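 SpCas9:gRNA RNP in 20 mM Tris-HCl pH 7.5, 100 mM KCl, 5 mM MgCl2 was used at 10 nM (2× stock) with Alexa Fluor 647-labelled substrate and excess quencher strand (1 nM and 5 nM, 2× stocks). Fluorescence was read after 2.5 h at 37 °C, where cleavage lets the quencher strand anneal.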

SpCas9, sequence (Q99ZW2 whole entry): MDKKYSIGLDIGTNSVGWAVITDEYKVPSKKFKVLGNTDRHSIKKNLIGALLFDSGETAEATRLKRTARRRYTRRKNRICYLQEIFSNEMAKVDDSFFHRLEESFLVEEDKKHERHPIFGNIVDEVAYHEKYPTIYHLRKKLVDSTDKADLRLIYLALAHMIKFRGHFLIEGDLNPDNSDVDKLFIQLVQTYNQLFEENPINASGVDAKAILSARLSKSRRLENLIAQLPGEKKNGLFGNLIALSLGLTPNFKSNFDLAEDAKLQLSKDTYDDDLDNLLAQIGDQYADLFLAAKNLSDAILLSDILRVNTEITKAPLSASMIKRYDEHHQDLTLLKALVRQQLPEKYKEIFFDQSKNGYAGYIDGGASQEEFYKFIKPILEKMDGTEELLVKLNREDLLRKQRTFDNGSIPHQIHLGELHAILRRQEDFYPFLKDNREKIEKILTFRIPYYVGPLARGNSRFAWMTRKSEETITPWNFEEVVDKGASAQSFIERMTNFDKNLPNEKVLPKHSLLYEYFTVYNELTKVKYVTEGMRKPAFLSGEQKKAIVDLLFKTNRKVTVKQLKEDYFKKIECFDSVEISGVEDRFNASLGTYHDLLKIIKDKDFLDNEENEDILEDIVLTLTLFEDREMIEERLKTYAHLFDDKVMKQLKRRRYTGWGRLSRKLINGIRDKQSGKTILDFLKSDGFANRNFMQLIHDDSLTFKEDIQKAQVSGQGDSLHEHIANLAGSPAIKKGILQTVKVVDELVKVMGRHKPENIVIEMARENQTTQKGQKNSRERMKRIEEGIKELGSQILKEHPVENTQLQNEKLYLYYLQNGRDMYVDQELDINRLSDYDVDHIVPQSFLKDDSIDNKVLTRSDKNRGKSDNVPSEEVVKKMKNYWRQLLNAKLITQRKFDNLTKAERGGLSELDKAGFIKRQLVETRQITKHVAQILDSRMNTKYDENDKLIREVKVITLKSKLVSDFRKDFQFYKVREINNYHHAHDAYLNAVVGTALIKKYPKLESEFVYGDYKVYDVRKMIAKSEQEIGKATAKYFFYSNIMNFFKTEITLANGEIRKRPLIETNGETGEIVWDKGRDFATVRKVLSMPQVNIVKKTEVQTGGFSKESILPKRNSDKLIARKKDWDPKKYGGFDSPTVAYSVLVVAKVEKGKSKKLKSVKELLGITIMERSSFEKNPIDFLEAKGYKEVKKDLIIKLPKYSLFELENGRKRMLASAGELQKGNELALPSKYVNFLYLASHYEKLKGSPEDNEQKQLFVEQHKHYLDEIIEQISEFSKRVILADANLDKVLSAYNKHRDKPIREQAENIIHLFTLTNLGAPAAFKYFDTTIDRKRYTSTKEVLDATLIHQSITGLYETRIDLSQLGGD
SpCas9:gRNA complex, sequence (Q99ZW2 whole entry, one chain of several): as the sequence (Q99ZW2 whole entry) above

O=C(CCS(=O)(=O)c1ccc(Cl)cc1)Nc1nc(-c2ccncc2)cs1 [BRD7586]
STD NMR signal (SpCas9:gRNA complex): observed the STD NMR signal from marked protons | Effect on activity of LbCas12a (LbCas12a): did not affect the activity | Cytotoxicity (U2OS.eGFP.PEST cells [1]): without introducing cytotoxicity | Cytotoxicity (HEK293T cells): without introducing cytotoxicity | Effect on eGFP expression in the absence of SpCas9:gRNA (U2OS.eGFP.PEST cells [2]): without affecting the eGFP expression | Inhibition of SpCas9 in CAA (SpCas9): dose-dependent inhibition
